# Assay results from PubChem BioAssay AID1963446 (Molecular Pharmacology Branch, DTP, NCI, 2024).
# “And” between values parts separate entries of the source, which are not always exact repeats. Equal entries are not always repeated.
# System: 993429-296-R-J1-PDC complex spheroid growth, percent test/control
# Assay: Anticancer human tumor 993429-296-R-J1-PDC patient-derived uterine sarcoma cell line growth inhibition [Asc]
# Conditions: for viability, T/C: stronger effect = lower value
# In short: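 Spheroid model: tumor line + HUVEC + hMSC. Single agents and combinations; top conc. at/near clinical Cmax (10 microM if undetermined), half-log dilutions. DMSO stocks at 800-fold test concentration.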
# 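Further: spheroids exposed to compounds for seven days.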
smiles,measurement,setting,value
C=CC(=O)N1CCN(c2nc(=O)n(-c3c(C)ccnc3C(C)C)c3nc(-c4c(O)cccc4F)c(F)cc23)C(C)C1 (configuration not stated) + CCN1C(C(=O)NC23CCC(C(=O)O)(CC2)CC3)C(c2cccc(Cl)c2F)C2(C(=O)Nc3cc(Cl)ccc32)C12CCCCC2,IC50,"curve of first compound, second compound 0.03 µM",> 10000 nM
same,IC50,"curve of first compound, second compound 0.0949 µM",> 10000 nM
same,IC50,"curve of first compound, second compound 0.3 µM",> 10000 nM
same,IC50,"curve of first compound, second compound 0.949 µM",> 10000 nM
same,IC50,"curve of first compound, second compound 3 µM",> 10000 nM
same,"viability, T/C","second compound 0.03 µM, first compound 0.0316 µM",96.1%
same,"viability, T/C","second compound 0.03 µM, first compound 0.1 µM",101%
same,"viability, T/C","second compound 0.03 µM, first compound 0.316 µM",108%
same,"viability, T/C","second compound 0.03 µM, first compound 1 µM",86.2%
same,"viability, T/C","second compound 0.03 µM, first compound 3.16 µM",114%
same,"viability, T/C","second compound 0.03 µM, first compound 10 µM",76.1%
same,"viability, T/C","second compound 0.0949 µM, first compound 0.0316 µM",102%
same,"viability, T/C","second compound 0.0949 µM, first compound 0.1 µM",106%
same,"viability, T/C","second compound 0.0949 µM, first compound 0.316 µM",103%
same,"viability, T/C","second compound 0.0949 µM, first compound 1 µM",106%
same,"viability, T/C","second compound 0.0949 µM, first compound 3.16 µM",96.5%
same,"viability, T/C","second compound 0.0949 µM, first compound 10 µM",70.5%
same,"viability, T/C","second compound 0.3 µM, first compound 0.0316 µM",88.8%
same,"viability, T/C","second compound 0.3 µM, first compound 0.1 µM",102%
same,"viability, T/C","second compound 0.3 µM, first compound 0.316 µM",102%
same,"viability, T/C","second compound 0.3 µM, first compound 1 µM",106%
same,"viability, T/C","second compound 0.3 µM, first compound 3.16 µM",107%
same,"viability, T/C","second compound 0.3 µM, first compound 10 µM",85.7%
same,"viability, T/C","second compound 0.949 µM, first compound 0.0316 µM",102%
same,"viability, T/C","second compound 0.949 µM, first compound 0.1 µM",91.2%
same,"viability, T/C","second compound 0.949 µM, first compound 0.316 µM",128%
same,"viability, T/C","second compound 0.949 µM, first compound 1 µM",100%
same,"viability, T/C","second compound 0.949 µM, first compound 3.16 µM",94.9%
same,"viability, T/C","second compound 0.949 µM, first compound 10 µM",78.3%
same,"viability, T/C","second compound 3 µM, first compound 0.0316 µM",100%
same,"viability, T/C","second compound 3 µM, first compound 0.1 µM",87.6%
same,"viability, T/C","second compound 3 µM, first compound 0.316 µM",97.9%
same,"viability, T/C","second compound 3 µM, first compound 1 µM",96.3%
same,"viability, T/C","second compound 3 µM, first compound 3.16 µM",90.4%
same,"viability, T/C","second compound 3 µM, first compound 10 µM",77.9%
COc1c(OCCCN2CCOCC2)ccc2c3n(c(=NC(=O)c4cnc(N)nc4)nc12)CCN3 + Cc1c(S(C)(=O)=O)c(-c2cc(F)cc(N3CCN(c4ccc(NS(=O)(=O)c5ccc(NC(CCN6CCC(C(=O)OCCCP(=O)(O)O)CC6)CSc6ccccc6)c(S(=O)(=O)C(F)(F)F)c5)cc4)CC3)c2)c(-c2ccc(Cl)cc2)n1C(C)C,IC50,"curve of first compound, second compound 0.1 µM",12.6 nM
same,IC50,"curve of first compound, second compound 0.316 µM",11.6 nM
same,IC50,"curve of first compound, second compound 1 µM",4.23 nM
same,IC50,"curve of first compound, second compound 3.16 µM",< 3.16 nM
same,IC50,"curve of first compound, second compound 10 µM",10.1 nM
same,"viability, T/C","second compound 0.1 µM, first compound 0.00316 µM",76.5%
same,"viability, T/C","second compound 0.1 µM, first compound 0.01 µM",54.1%
same,"viability, T/C","second compound 0.1 µM, first compound 0.0316 µM",29.3%
same,"viability, T/C","second compound 0.1 µM, first compound 0.1 µM",3.96%
same,"viability, T/C","second compound 0.1 µM, first compound 0.316 µM",1.63%
same,"viability, T/C","second compound 0.1 µM, first compound 1 µM",0.23%
same,"viability, T/C","second compound 0.316 µM, first compound 0.00316 µM",71.7%
same,"viability, T/C","second compound 0.316 µM, first compound 0.01 µM",54%
same,"viability, T/C","second compound 0.316 µM, first compound 0.0316 µM",22.2%
same,"viability, T/C","second compound 0.316 µM, first compound 0.1 µM",3.44%
same,"viability, T/C","second compound 0.316 µM, first compound 0.316 µM",0.88%
same,"viability, T/C","second compound 0.316 µM, first compound 1 µM",0.17%
same,"viability, T/C","second compound 1 µM, first compound 0.00316 µM",54.2%
same,"viability, T/C","second compound 1 µM, first compound 0.01 µM",37.9%
same,"viability, T/C","second compound 1 µM, first compound 0.0316 µM",23.3%
same,"viability, T/C","second compound 1 µM, first compound 0.1 µM",3.11%
same,"viability, T/C","second compound 1 µM, first compound 0.316 µM",0.68%
same,"viability, T/C","second compound 1 µM, first compound 1 µM",0.31%
same,"viability, T/C","second compound 3.16 µM, first compound 0.00316 µM",35.8%
same,"viability, T/C","second compound 3.16 µM, first compound 0.01 µM",33.7%
same,"viability, T/C","second compound 3.16 µM, first compound 0.0316 µM",14.8%
same,"viability, T/C","second compound 3.16 µM, first compound 0.1 µM",2.35%
same,"viability, T/C","second compound 3.16 µM, first compound 0.316 µM",0.33%
same,"viability, T/C","second compound 3.16 µM, first compound 1 µM",0.18%
same,"viability, T/C","second compound 10 µM, first compound 0.00316 µM",79.3%
same,"viability, T/C","second compound 10 µM, first compound 0.01 µM",49.4%
same,"viability, T/C","second compound 10 µM, first compound 0.0316 µM",20.7%
same,"viability, T/C","second compound 10 µM, first compound 0.1 µM",1.24%
same,"viability, T/C","second compound 10 µM, first compound 0.316 µM",0.28%
same,"viability, T/C","second compound 10 µM, first compound 1 µM",0.25%
NC1CCC(NC2CC2c2ccccc2)CC1 (configuration not stated),"viability, T/C",compound 0.000316 µM,72.9% and 80.7% and 109%
same,"viability, T/C",compound 0.001 µM,70.1% and 86.3% and 87%
same,"viability, T/C",compound 0.00316 µM,85.3% and 78.1% and 85.6%
same,"viability, T/C",compound 0.01 µM,78.4% and 94.6% and 91.1%
same,"viability, T/C",compound 0.0316 µM,68% and 88.5% and 86.8%
same,"viability, T/C",compound 0.1 µM,74.9% and 76.6% and 79.7%
same,IC50,curve of compound,> 100 nM
